Measured values as given in patent publication US11716992B2, “5A5B6C tricyclic spirolactone derivative, preparation method therefor and use thereof” (NANKAI UNIVERSITY, priority 2017, dated 2023).
Where “and” joins values, the source holds several entries; their conditions need not be identical. Equal values may be shown once. Read-outs that look alike come from different tables or passages of the source.

Legend:
Physalospora piricola = assay: Fungicidal activity, fungicide growth rate method, PP; assay type: cell-based; settings: 50 μg/mL; for inhibition at 50 µg/mL: read-out: fungicidal activity (growth inhibition rate), PP
[1] = tested on: Phytophthora infestans (Mont.) de Bary; assay: microbe, parasite or virus in culture; assay type: cell-based; settings: Phytophthora infestans, read-out: fungicidal activity (growth inhibition rate), PI, 50 μg/mL
Cercospora arachidicola = assay: Fungicidal activity, fungicide growth rate method, CA; assay type: cell-based; settings: 50 μg/mL; for inhibition at 50 µg/mL: Mycosphaerella arachidis, read-out: fungicidal activity (growth inhibition rate), CA
[2] = tested on: Mythimna separate (Walker); assay: Insecticidal activity against Mythimna separate (Walker); assay type: in vivo; settings: Mythimna, 100 μg/mL; read-out: insecticidal activity, Mythimna separate (Walker)
Caenorhabditis elegans = assay: Insecticidal activity against Caenorhabditis elegans; assay type: in vivo; settings: 100 μg/mL; for pest or weed control at 100 µg/mL: Caenorhabditis elegans, read-out: insecticidal activity, Caenorhabditis elegans
Tobacco Mosaic Virus = assay: Anti-TMV inactivation activity on tobacco plants; assay type: in vivo; parameters: concentration or dose not given beside the values; settings: compound mixed with TMV solution 30 minutes, lesions checked three days later
Ostrinia furnacalis = assay: Insecticidal activity against Ostrinia furnacalis; assay type: in vivo; settings: Ostrinia furnacalis; 100 μg/mL; read-out: insecticidal activity, Ostrinia furnacalis
Botrytis cinerea = assay: Fungicidal activity, fungicide growth rate method, BC; assay type: cell-based; settings: 50 μg/mL; for inhibition at 50 µg/mL: Botrytis cinerea, read-out: fungicidal activity (growth inhibition rate), BC
[3] = tested on: Apis mellifera ligustica Spin; settings: for Death number after 24 h / Death number after 48 h: per replicate of 10 bees
Alternaria solani = assay: Fungicidal activity, fungicide growth rate method, AS; assay type: cell-based; settings: 50 μg/mL; for inhibition at 50 µg/mL: Alternaria solani, read-out: fungicidal activity (growth inhibition rate), AS
Pellicularia sasakii = assay: Fungicidal activity, fungicide growth rate method, PS; assay type: cell-based; settings: 50 μg/mL; for inhibition at 50 µg/mL: read-out: fungicidal activity (growth inhibition rate), PS
Rhizoctonia cerealis = assay: Fungicidal activity, fungicide growth rate method, RC; assay type: cell-based; settings: Ceratobasidium cereale, 50 μg/mL; read-out: fungicidal activity (growth inhibition rate), RC
Sclerotinia sclerotiorum = assay: Fungicidal activity, fungicide growth rate method, SS; assay type: cell-based; settings: 50 μg/mL; for inhibition at 50 µg/mL: Sclerotinia sclerotiorum
[4] = tested on: Helicoverpa armigera (Hübner); assay: Insecticidal activity against Helicoverpa armigera (Hübner); assay type: in vivo; settings: Helicoverpa armigera; 100 μg/mL; read-out: insecticidal activity, Helicoverpa armigera (Hübner)
wheat Gibberella zeae = assay: microbe, parasite or virus in culture; assay type: cell-based; settings: for inhibition at 50 µg/mL: Fusarium graminearum, read-out: fungicidal activity (growth inhibition rate), GZ, 50 μg/mL

SMILES	inhibition at 50 µg/mL (Physalospora piricola) [%]	inhibition at 50 µg/mL [1] [%]	inhibition at 50 µg/mL (Cercospora arachidicola) [%]	pest or weed control at 100 µg/mL [2] [%]	pest or weed control at 100 µg/mL (Caenorhabditis elegans) [%]	TMV inactivation (anti-TMV activity) (Tobacco Mosaic Virus) [%]	pest or weed control at 100 µg/mL (Ostrinia furnacalis) [%]	inhibition at 50 µg/mL (Botrytis cinerea) [%]	inhibition at 50 µg/mL (Alternaria solani) [%]	inhibition at 50 µg/mL (Pellicularia sasakii) [%]	inhibition at 50 µg/mL (Rhizoctonia cerealis) [%]	inhibition at 50 µg/mL (Sclerotinia sclerotiorum) [%]	pest or weed control at 100 µg/mL [4] [%]	inhibition at 50 µg/mL (wheat Gibberella zeae) [%]	melting point [°C]	further results
CCOC(=O)C(C(=O)OCC)C1CC(=O)[C@@]2(O)CC=CC[C@H]12 (stereo partly drawn) [Zyj06-113-2]	26	40	24	20	7	28	15	> 50	3	25	0	36	5	0	–	Death rate after 48 h (%) ([3]; dosage 9.69 μg a.i./bee): 10.0%; Death number after 24 h ([3]; dosage 9.69 μg a.i./bee): 0; Death number after 48 h ([3]; dosage 9.69 μg a.i./bee): 0 and 2; Death rate after 48 h (%) ([3]; dosage 12.6 μg a.i./bee): 15.0%; Death number after 24 h ([3]; dosage 12.6 μg a.i./bee): 0; Death number after 48 h ([3]; dosage 12.6 μg a.i./bee): 1 and 2
C=CC[C@@H]1C[C@]2(O)C(C(=O)OCC)C(=O)O[C@@]23CC=CC[C@H]13 (stereo partly drawn) [Zyj06-180]	15	19	30	20	22	5	0	> 50	14	45	0	> 50	5	20	–	Death rate after 48 h (%) ([3]; dosage 10.6 μg a.i./bee): 5.0%; Death number after 24 h ([3]; dosage 10.6 μg a.i./bee): 1 and 0; Death number after 48 h ([3]; dosage 10.6 μg a.i./bee): 1 and 0
C=CC[C@@H]1C[C@]2(O)C[C@H](O[C@]34CCO[C@@]35CC=CC[C@H]5[C@H](CC=C)C4)O[C@@]23CC=CC[C@H]13 [Zyj07-30-1]	–	21	–	0	–	8	0	–	–	–	0	–	0	–	–	fungicidal activity (growth inhibition rate), PP (Physalospora piricola): 83%; fungicidal activity (growth inhibition rate), CA (Cercospora arachidicola): 41%; insecticidal activity, Caenorhabditis elegans (Caenorhabditis elegans): 5%; fungicidal activity (growth inhibition rate), BC (Botrytis cinerea): 5%; Death rate after 48 h (%) ([3]; dosage 5.12 μg a.i./bee): 0%; Death number after 24 h ([3]; dosage 5.12 μg a.i./bee): 0; Death number after 48 h ([3]; dosage 5.12 μg a.i./bee): 0; Death rate after 48 h (%) ([3]; dosage 10.6 μg a.i./bee): 5.0%; Death number after 24 h ([3]; dosage 10.6 μg a.i./bee): 0; Death number after 48 h ([3]; dosage 10.6 μg a.i./bee): 0 and 1; fungicidal activity (growth inhibition rate), AS (Alternaria solani): 14%; fungicidal activity (growth inhibition rate), PS (Pellicularia sasakii): 22%; fungicidal activity (growth inhibition rate), SS (Sclerotinia sclerotiorum): 95%; fungicidal activity (growth inhibition rate), GZ (wheat Gibberella zeae; 50 μg/mL): 0%
C=CC[C@@H]1C[C@]2(O)CCO[C@@]23C[C@@H]2O[C@@H]2C[C@H]13 [Zyj07-31-1]	> 50	15	41	0	18	11	0	36	14	0	7	0	0	7	–	–
C=CC[C@@H]1C[C@]2(O)CCO[C@@]23C[C@H]2O[C@H]2C[C@H]13 [Zyj07-31-2]	31	21	27	> 30	8	15	0	18	22	18	21	> 50	0	3	–	Death rate after 48 h (%) ([3]; dosage 6.51 μg a.i./bee): 0%; Death number after 24 h ([3]; dosage 6.51 μg a.i./bee): 0; Death number after 48 h ([3]; dosage 6.51 μg a.i./bee): 0; Death rate after 48 h (%) ([3]; dosage 9.36 μg a.i./bee): 10.0%; Death number after 24 h ([3]; dosage 9.36 μg a.i./bee): 0; Death number after 48 h ([3]; dosage 9.36 μg a.i./bee): 1
C=CC[C@@H]1C[C@]2(O)CCO[C@@]23CC[C@H](O)C[C@H]13 [Zyj07-33]	> 50	16	46	> 30	27	9	10	> 50	24	27	41	31	15	27	–	–
C=CC[C@@H]1C[C@]2(OC(C)=O)C[C@H](OC(C)=O)O[C@@]23CC=CC[C@H]13 [Zyj07-37-2]	31	21	27	20	13	28	0	18	22	18	21	> 50	15	3	–	–
C=CC[C@@H]1C[C@]2(OC(C)=O)C[C@H](OC(C)=O)O[C@@]23C[C@H]2O[C@H]2C[C@H]13 [Zyj07-65-2]	12	25	24	> 30	17	29	5	41	0	0	7	24	10	0	–	Death rate after 48 h (%) ([3]; dosage 9.57 μg a.i./bee): 5.0%; Death number after 24 h ([3]; dosage 9.57 μg a.i./bee): 0; Death number after 48 h ([3]; dosage 9.57 μg a.i./bee): 0 and 1; Death rate after 48 h (%) ([3]; dosage 10.9 μg a.i./bee): 0%; Death number after 24 h ([3]; dosage 10.9 μg a.i./bee): 0; Death number after 48 h ([3]; dosage 10.9 μg a.i./bee): 0
C=CC[C@@H]1C[C@@]2(OC(C)=O)C[C@@H](CC=C)[C@H]3C[C@@H]4O[C@@H]4C[C@@]32O1 [Zyj07-67-2]	13	25	24	0	20	29	0	> 50	0	36	29	> 50	0	0	100 to 102	–
C=CC[C@@H]1C[C@]2(O)CCO[C@@]23C[C@@H](Cl)[C@H](O)C[C@H]13 [Zyj07-100]	29	38	46	10	–	–	0	14	14	23	0	–	0	13	134 to 136	–
C=CC[C@@H]1C[C@]2(O)CCO[C@@]23C[C@@H](O)[C@H](Cl)C[C@H]13 [Zyj07-101]	> 50	> 60	14	> 30	–	–	15	> 50	5	0	29	–	20	3	143 to 144	–
O=C1C[C@@]2(O)CC[C@H]3C[C@@H]4O[C@@H]4C[C@@]32O1 [Zyj07-102]	42	23	14	0	–	14	0	41	0	0	0	0	0	27	119 to 120	–
